Experimental findings from patent US9855229B2, “Treatment of respiratory disorders using ROR-gamma inhibitors” (Glenmark Pharmaceuticals S.A., priority 2015, dated 2018) are described below.

pIC50: −log10 of the molar value.

The subject of assay [1] is anti CD2/3/28 stimulated IL-17 release from COPD lung BAL cells. Put plainly: Ex-vivo IL-17 inhibition from BAL cells of COPD patients. In kind it is cell-based, human. The conditions noted are these: for pIC50: average over patients, 72 hrs. The method, then:
(§1) Ex vivo effect of ROR γt inhibitors were evaluated on tissue samples of eligible subjects suffering from moderate (Stage II), severe (Stage III) to very severe (Stage IV) COPD classified in accordance with GOLD guidelines.
Flexible fiber optic bronchoscopy was performed on 6 eligible subjects (COPD patients) after written valid consent and lignocaine nebulization. Bronchoscope was wedged into bronchus, pre-warmed sterile saline solution instilled into the lobes and bronchoalveolar lavage was collected in sterile container on ice. The filtrate was passed through the cell strainer for removing the particulate matter and centrifuged at 2000 rpm for 10 mins. The BAL cell pellet obtained was further treated with ACK buffer to lyse out the RBCs. Isolated BAL cells per suspended in 10% FBS containing medium.
(§2) PBMCs or BAL cells were seeded at 1-2×10^5 cells per well onto 96-well flat bottomed plates pre-coated with 2 μg/ml of CD2 antibody (LEAF Purified, Biolegend, #300212) and 10 μg/ml of CD3 antibody (Purified NA/LE, BD, #555329). This was followed by the pre-treatment with compounds (concentrations ranging from 1 nM to 10 uM) and roflumilast for one hour prior to addition of 2 μg/ml of soluble CD28 antibody (LEAF purified, Biolegend, #302914). BAL cells and PBMC were then incubated at 37° C. for 72 hrs in 5% CO2 incubator, after which supematants were collected and stored at −80° C. prior to cytokine analysis.
(§3) Supematants were analysed for IL-17A using either the High Sensitivity ELISA (eBioscience), or the LEGEND MAX™ ELISA kit (Biolegend) according to the manufacturer's instructions.
(§4) IL-17 cytokine concentrations in the supematants were determined from the standard curve plot. Percent inhibition for each set treated with compound was calculated using the formula: Percent inhibition={100−(pg/ml of test compound/pg/ml of control×100)}. IC50 values were calculated from the dose response curves by nonlinear regression analysis using GraphPad Prism Software. Results

Assay [2] relates to anti CD2/3/28 stimulated IL-17 release from PBMC of COPD patients. Put plainly: Ex-vivo IL-17 inhibition from PBMCs of COPD patients. The assay is classed as cell-based, human. The following applies: for pIC50: average over patients, 72 hrs. On the procedure:
as §1
Blood was collected in a heparin tube prior to bronchoscopy. 1:1 diluted blood was layered over Histopaque and centrifuged at 400 g, 30 min, at room temperature. The PBMC layer at the interface was aspirated and washed twice with PBS prior to re-suspension in 10% FBS containing media.
as §2, §3, §4

Assay [3] concerns the target human RORγ receptor (GST-tagged ROR gamma ligand binding domain) (Homo sapiens (Human), UniProt P51449). Description: TR-FRET assay for ROR gamma (Lantha Screen co-activator peptide recruitment). The following applies: 10 nM GST-tagged ROR gamma LBD, read-out: IC50 value for inhibiting human RORγ receptor activity. The assay is classed as biochemical. The source says:
The compounds described herein were screened for RORγ inhibitor activity using the TR-FRET assay by Lantha Screen as described in JBC 2011, 286, 26: 22707-10; and Drug Metabolism and Disposition 2009, 37, 10: 2069-78
TR-FRET Assay for ROR Gamma:
The assay is based on the principle that binding of the agonist to the RORγ causes a conformational change around helix 12 in the ligand binding domain, resulting in higher affinity for the co-activator peptide. The Fluorescein-D22 co-activator peptide used in the assay is recruited in the absence of a ligand. Binding of the co-activator peptide, causes an increase in the TR-FRET signal while binding of an inhibitor decreases the recruitment of the co-activator peptide, causing a decrease in the TR-FRET signal compared to a control with no test compound. The assay was performed using a two-step procedure, pre-incubation step with the test compound followed by the detection step on addition of the anti-GST tagged terbium (Tb) and fluorescein tagged fluorophores as the acceptor.
Test compounds or reference compounds such as T0901317 (Calbiochem) were dissolved in dimethylsulfoxide (DMSO) to prepare 10.0 mM stock solutions and diluted to the desired concentration. The final concentration of DMSO in the reaction was 4% (v/v). The assay mixture was prepared by mixing 10 nM of the GST-tagged ROR gamma ligand binding domain (LBD) in the assay buffer containing 25 mM HEPES (pH 7.4), 100 mM NaCl, 5 mM DTT and 0.01% BSA with or without the desired concentration of the test compound. The reaction was incubated at 22° C. for 1 hour. The pre-incubation step was terminated by addition of the detection mixture containing 300 nM Fluorescein-D22 co-activator peptide and 10 nM lantha screen Tb-anti GST antibody into the reaction mixture. After shaking for 5 minutes the reaction was further incubated for 1 hour at room temperature and read at 4° C. on an Infinite F500 reader as per the kit instructions (Invitrogen). The inhibition by test compound was calculated based on the TR-FRET ratio of 520/495. The activity was calculated as a percent of the control reaction. IC50 values were calculated from dose response curve by nonlinear regression analysis using GraphPad Prism software.

Assay [4] relates to cigarette smoke (CS) induced pulmonary inflammation model in male C57BL6/J mice. Description: Cigarette smoke (CS) induced pulmonary inflammation model, 7 days exposure, BAL cell count. In kind it is in vivo. The following applies: i.n., od, 7 days CS exposure; for CS mediated increase in macrophages in BALf / CS mediated increase in neutrophils in BALf / CS mediated increase in total leukocyte count (TLC) in BALf: BAL 20 hours after last smoke exposure. The method, then: Male C57BL/6 mice were exposed alternately to cigarette smoke (10 Kentucky Research Cigarettes 3R4F) and fresh air for 50 minutes (10 seconds cigarette smoke+5 seconds air for 19 puffs per cigarette) twice daily for 7 days in a whole-body box exposure system (SIU24, ProMech Lab Holding AB, Sweden). Test compounds were sonicated in 1×PBS containing 0.005% tween 80. For localized delivery to lung, animals were administered vehicle or test compounds intranasally (i.n.) (40 μl per animal) under isoflurane anaesthesia, once or twice in a day, 1 hour before smoke exposure. Non-drug-treated air and smoked control animals were given vehicle before exposure to fresh air or smoke as appropriate. Animals were sacrificed 20 hours after the last smoke exposure and subjected to bronchoalveolar lavage (BAL). Total and differential BAL cell count was performed.
BAL was performed at approximately 20 hours after final smoke exposure. Animals were euthanized with an overdose of urethane, trachea was exposed and BAL was performed 4 times using 0.3 ml PBS. All aspirates of BAL were pooled and total numbers of cells were determined using a hemocytometer. BALf was centrifuged. The cell pellet collected after centrifugation was resuspended in 15 μL serum and used for preparation of smears.
For cell differentials, slides were stained with Leishman's stain and a differential cell count of 500 cells based on standard morphology was performed manually.
Total and differential cell count was determined in the BALf. The results were expressed as percent inhibition of leukocytes in BALf. The change in the treatments was statistically evaluated by ANOVA followed by Dunnett's multiple comparisons test.

A word on the inhibition: it is the change of the read-out against control, counted positive when it falls. In general, pIC50 refers to the IC50 on a negative log10 scale, so that one unit is a factor of ten.

Sequence of human RORγ receptor (GST-tagged ROR gamma ligand binding domain) (P51449 269-508): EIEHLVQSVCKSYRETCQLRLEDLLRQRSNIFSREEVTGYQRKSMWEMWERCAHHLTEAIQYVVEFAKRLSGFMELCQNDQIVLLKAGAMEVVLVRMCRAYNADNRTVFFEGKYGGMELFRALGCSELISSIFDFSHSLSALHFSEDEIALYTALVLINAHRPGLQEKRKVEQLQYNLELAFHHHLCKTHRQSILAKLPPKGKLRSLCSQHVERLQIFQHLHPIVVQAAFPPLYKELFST

For `O=C(Nc1c(Cl)cncc1Cl)c1ccc(OC(F)F)c(OCC2CC2)c1` [Roflumilast, reference compound], the inhibition at 10 µM was 6.75% in assay [1] (Homo sapiens, at 10 μM, read-out: BAL IL-17 percent inhibition) and 20.2% in assay [2] (Homo sapiens, at 10 μM, read-out: PBMC IL-17 percent inhibition).

For the compound `CCS(=O)(=O)c1ccc(CC(=O)Nc2ccc(C#CC(C)(C)Oc3ccc(Cl)c(F)c3)cc2)cc1` [Compound 5], the pIC50 in assay [3] is 7.76.

For `CCS(=O)(=O)c1ccc(CC(=O)Nc2ccc(OC(C)(C)c3ccc(Cl)cc3Cl)cc2)cc1` [Compound 3], the pIC50 in assay [3] is 8.26. Moreover, in assay [4], the “inhibition of pulmonary inflammation induced by cigarette smoke” value is on record as “significant inhibition”, the “CS mediated increase in macrophages in BALf” value was “significantly prevented”, the “CS mediated increase in neutrophils in BALf” value was “significantly prevented” and the “CS mediated increase in total leukocyte count (TLC) in BALf” value was “significantly prevented”.

Consider `CCn1c(C(C)(C)Oc2ccc(F)cc2F)nc2cc(NC(=O)Cc3ccc(S(=O)(=O)CC)cc3)ccc21` [Compound 1], for which the pIC50 in assay [3] is 8.37; in assay [1] (Homo sapiens), 6.46; in assay [2] (Homo sapiens), 6.83.

With `CCS(=O)(=O)c1ccc(CC(=O)Nc2ccc(OC(C)(C)c3ncc(Cl)cc3Cl)c(F)c2)cc1` [Compound 11], the pIC50 in assay [3] was 7.59; in assay [1] it was 5.57; in assay [2], 7.08.

As to `CCS(=O)(=O)c1ccc(CC(=O)Nc2ccc(OC3(c4ccc(Cl)cc4Cl)CCOCC3)cc2)cc1` [Compound 9], in assay [3], the pIC50 is 7.73. Also, in assay [4], the “inhibition of pulmonary inflammation induced by cigarette smoke” value is “significant inhibition”, the “CS mediated increase in macrophages in BALf” value is reported as “significantly prevented”, the “CS mediated increase in neutrophils in BALf” value is given as “significantly prevented” and the “CS mediated increase in total leukocyte count (TLC) in BALf” value was “significantly prevented”. This compound gave a negative logarithm of the IC50 (pIC50) in assay [1] (Homo sapiens) of 5.62. Moreover, the negative-log IC50 (pIC50) in assay [2] (Homo sapiens) is 6.44.

As for `CCS(=O)(=O)c1ccc(CC(=O)Nc2ccc(OC(C)(C)c3ccc(Cl)cc3Cl)c(F)c2)cc1` [Compound 4], in assay [3], the pIC50 was 8.22.

Take `CCS(=O)(=O)c1ccc(CC(=O)Nc2ccc(OC3(c4ccc(Cl)cc4Cl)CCOCC3)c(F)c2)cc1` [Compound 10]: the pIC50 in assay [3] was 7.79; in assay [1] it was 6.14; in assay [2] it was 6.44.
